No end group written: not given here.
Assays:
[1] = test system: normal epithelium cells (vero); assay: Cytotoxicity assay (Cell Counting Kit-8 assay) on normal epithelium cells; type: cell-based; conditions: 10 μM, 24 hours, CCK-8, FIG. 3
Experimental: To confirm the proliferation and cytotoxicity of the fibroblasts, the CCK-8 assay (Cell Counting Kit-8 assay) of Dojindo Molecular Technologies (Japan) was performed according to the manufacturer's instructions.
First, human foreskin fibroblast (3,000 cells/well; Promocell) and normal epithelium cells (vero; 3,000 cells/well) were cultured in DMEM medium containing 10% serum in 96-well plates for 12 hours, and then cultured in serum-free medium for about 3 hours. Then, Neo-Pep polypeptide (SEQ ID NO: 1) and fragments thereof (SEQ ID NOS: 2 to 4) were added to the DMEM medium with the concentration of 10 μM each, and then cultured for 24 hours.
Then, 10 μl of CCK-8 solution (Dojindo Molecular Technologies, Japan) was added to each well of the medium, and the absorbance was analyzed at 450 nm using a microplate reader according to the manufacturer's instructions.

Raw 264.7 cells = assay: TNF-alpha ELISA assay (TNF-alpha secretion); type: cell-based; conditions: 10 μM, 6 hours, FIG. 4
Experimental: Raw 264.7 cells (ATCC TIB-71; 3,000 cells/well) were cultured for 12 hours in DMEM medium containing 10% serum in a 96-well plate, and then cultured in serum-free medium for about 3 hours. Then, Neo-Pep polypeptide (SEQ ID NO: 1) and its fragments (SEQ ID NOS: 2 to 4) were added to the DMEM medium with the concentration of 10 μM each, and then cultured for 6 hours.
Then, the medium was collected and centrifuged at 1,000 g for 10 minutes, and secreted TNF-α was detected using a TNF-α ELISA assay (BD Biosciences, USA) according to the manufacturer's instructions.

| Sequence | epithelium cell viability versus control group [1] | secreted TNF-alpha level versus control group (Raw 264.7 cells) |
| --- | --- | --- |
| IEYLKQQVSLLKEKA [Polypeptide S1400, IEYLKQQVSLLKEKA] | slightly lower | very low and similar to that of control group |
| KGAEADQIIEYLKQQ [Polypeptide S1300, KGAEADQIIEYLKQQ] |  | very low and similar to that of control group |
| AVLKRLEQKGAEADQIIEYLKQQVSLLKEKAILQATLREEK [Neo-Pep] |  | very low and similar to that of control group |
| RLEQKGAEADQIIEY [Polypeptide S1200, RLEQKGAEADQIIEY] |  | very low and similar to that of control group |

Source: US10800824B2, “AIMP1 protein fragment and skin-protecting composition containing same as active ingredient” (NEOMICS CO., LTD., priority 2016, dated 2020)
